Assay results taken from US20090068169A1, “2,4,6-triamino-s-triazine-based compounds which bind to the tail (fc) portion of immunoglobulins and their use” (priority 2004, published 2009).
Marks after values point to notes of the source that are not given here.

What was measured:
[1] = tested on: oxazolone-induced delayed-type hypersensitivity (DTH) in mice; assay: Oxazolone-induced delayed-type hypersensitivity (DTH); type: in vivo; conditions: per os; for Activity (ear thickness inhibition) First Challenge: first oxazolone challenge; for Activity (ear thickness inhibition) Second Challenge: second oxazolone challenge, n.s. = non significant effect
[2] = tested on: oxazolone-induced delayed-type hypersensitivity (DTH) in mice; assay: as above; type: in vivo; conditions: intravenous; for inhibition of the inflammation after the second challenge of oxazolone: FIG. 2, second challenge; for Activity (ear thickness inhibition) First Challenge: first oxazolone challenge; for Activity (ear thickness inhibition) First Challenge / Activity (ear thickness inhibition) Second Challenge: n.s. = non significant effect; for Activity (ear thickness inhibition) Second Challenge: second oxazolone challenge
Procedure: Compounds were tested for their ability to treat oxazolone-induced delayed-type hypersensitivity (DTH) in mice. On day 0, mice were sensitized with 100 μL of oxazolone in 5% acetone. On day 0, 1 and 2, mice were treated by intravenous administration of the vehicle (control) or methotrexate (MTX; positive control) or the compound at 50 mg/kg (compound 3) or 25 mg/kg (compound 1 or 10). Mice were challenged with an application of 50 μL of oxazolone on the surface of the right ear (first challenge, day 3; second challenge, day 10). Ear thickness was measured on day 4 to day 7, and on day 11 to 14. Redness and crust formation was also observed. Mice were sacrificed on day 14. TDTH (CD4) cells play an important role in regulating the intensity of the DTH response. Compounds may exert an inhibitory influence on the DTH response through its inhibition of T-cell activation and DNA, RNA and/or protein synthesis.

Fc portion of human IgG = biological target: T1, Fc portion of human IgG; assay: Competitive protein A binding ELISA; conditions: for IC50: inhibition of binding of protein A to HRP-human IgG, assay in PBS; for binding activity, in words: refers to Table 1, bis-aminoanilino arrangement
T1 construct: fused on or other part: horseradish peroxidase chemically conjugated to the IgG (detection label)
Procedure: The competitive protein A binding ELISA assay was performed on a 96-well plate MAXISORP® surface to enhance the binding of protein A to the bottom of the plate. The wells were coated with 100 μL of protein A (0.8 μg) and incubated overnight at 4° C. After incubation, unbound protein A was removed by three washes with phosphate buffer saline (PBS). The plate was then incubated with 100 μL/well of a 2% solution of bovine serum albumin (BSA) for 1 h at 37° C. to block non specific protein binding. After incubation, the plate was washed three times with PBS. 50 μL of compound or protein A, diluted in PBS or PBS-20% DMSO at appropriate concentration, were added to the wells followed by addition of 50 μL of peroxidase-conjugated human IgG (HRP-IgG). After 1 h incubation at 37° C., the plate was washed three times with PBS to remove unbound HRP-IgG. […] The plate was then read at 405 nm on a EL 800, universal microplate reader (Bio-Tek). Data was analyzed in Microsoft Excel and the concentration of compound which inhibits 50% binding of protein A (IC50) was calculated using Prism software.

Molecule | IC50 (Fc portion of human IgG) [nM] | other results
Nc1ccc(CCNc2nc(NCCCCCCO)nc(Nc3cccc(N)c3)n2)cc1 [Compound 1] | 93 | oral activity on DTH [1]: oral activity; Activity (ear thickness inhibition) First Challenge [1]: ↓ per os (p = 0.003); Activity (ear thickness inhibition) Second Challenge [1]: ↓ (n.s.)*; inhibition of the inflammation after the second challenge of oxazolone [2]: significant inhibition of the inflammation; Activity (ear thickness inhibition) First Challenge [2]: No effect
Nc1ccc(CNc2nc(NCCCCCCO)nc(Nc3cccc(N)c3)n2)cc1 [Compound 2] | 148 | Activity (ear thickness inhibition) Second Challenge [2]: No effect
NCCCCCCNc1nc(NCCc2ccc(N)cc2)nc(Nc2cccc(N)c2)n1 [Compound 4] | 300 | –
NCCNc1nc(NCCc2ccc(N)cc2)nc(Nc2cccc(N)c2)n1 [Compound 5] | 377 | oral activity on DTH [1]: oral activity; Activity (ear thickness inhibition) First Challenge [1]: ↓ per os (p = 0.008); Activity (ear thickness inhibition) Second Challenge [1]: ↓ (n.s.)
Nc1ccc(CCNc2nc(Nc3cccc(N)c3)nc(NC3CCC3)n2)cc1 [Compound 8] | 53 | –
Nc1ccc(CCNc2nc(Nc3cccc(N)c3)nc(NC3CCCC3)n2)cc1 [Compound 9] | 131 | Activity (ear thickness inhibition) Second Challenge [2]: No effect
Nc1ccc(CCNc2nc(NCc3cccc(N)c3)nc(Nc3cccc(N)c3)n2)cc1 [Compound 10] | 106 | oral activity on DTH [1]: oral activity; Activity (ear thickness inhibition) First Challenge [1]: No effect per os; Activity (ear thickness inhibition) Second Challenge [2]: No effect
Nc1ccc(CCNc2nc(NCc3ccc(N)cc3)nc(Nc3cccc(N)c3)n2)cc1 [Compound 11] | 85 | –
Nc1cccc(CNc2nc(Nc3cccc(N)c3)nc(Nc3cccc(N)c3)n2)c1 [Compound 12] | 3 | binding activity, in words (Fc portion of human IgG): potent binding activity
Nc1ccc(CNc2nc(Nc3cccc(N)c3)nc(Nc3cccc(N)c3)n2)cc1 [Compound 13] | 1 | binding activity, in words (Fc portion of human IgG): potent binding activity
Nc1cccc(CNc2nc(N)nc(Nc3cccc(N)c3)n2)c1 [Compound 16] | 159 | Activity (ear thickness inhibition) First Challenge [2]: No effect; Activity (ear thickness inhibition) Second Challenge [2]: No effect
Nc1ccc(CNc2nc(N)nc(Nc3cccc(N)c3)n2)cc1 [Compound 17] | 65 | –
Nc1cccc(Nc2nc(N)nc(NCc3ccccc3N)n2)c1 [Compound 18] | 97 | –
Nc1ccc(CCNc2nc(Nc3cccc(N)c3)nc(Nc3cccc(N)c3)n2)cc1 [Compound 20] | 65 | –
Nc1cccc(CCNc2nc(NCC3CC3)nc(Nc3cccc(N)c3)n2)c1 [Compound 30] | 88 | –
Nc1cccc(Nc2nc(Nc3cccc(N)c3)nc(NC3CC3)n2)c1 [Compound 32] | 38 | –
Nc1cccc(Nc2nc(N)nc(Nc3cccc(N)c3)n2)c1 [Compound 33] | 170 | –
CN(C[C@H](O)[C@@H](O)[C@H](O)[C@H](O)CO)c1nc(Nc2cccc(N)c2)nc(Nc2cccc(N)c2)n1 [Compound 35] | 37 | Activity (ear thickness inhibition) Second Challenge [2]: No effect
NCCCCCCNc1nc(Nc2cccc(N)c2)nc(Nc2cccc(N)c2)n1 [Compound 36] | 68 | –
Nc1cccc(Nc2nc(NCCc3ccccc3N)nc(NCC3CC3)n2)c1 [Compound 38] | 312 | –
COc1cccc(Nc2nc(Nc3cccc(N)c3)nc(Nc3cccc(OC)c3)n2)c1 [Compound 45] | 469 | –
Protein A (Control): Staphylococcal protein A, cell-surface bacterial protein which binds the Fc (tail) portion of most antibodies [reference compound] | 187 | –

The next lines start with results.

IC50 (Fc portion of human IgG) [nM] | Molecule | other results
106 | Nc1ccc(CCNc2nc(NCCCCO)nc(Nc3cccc(N)c3)n2)cc1 [Compound 3] | oral activity on DTH [1]: oral activity; Activity (ear thickness inhibition) First Challenge [1]: ↓ per os (p = 0.03); Activity (ear thickness inhibition) Second Challenge [1]: ↓ (n.s.); inhibition of the inflammation after the second challenge of oxazolone [2]: significant inhibition of the inflammation
306 | COc1cccc(Nc2nc(NCCN)nc(Nc3cccc(N)c3)n2)c1 [Compound 14] | –
415 | COc1ccc(Nc2nc(NCCN)nc(Nc3cccc(N)c3)n2)cc1 [Compound 15] | –
15 | Nc1cccc(Nc2nc(NCCCCCCO)nc(Nc3cccc(N)c3)n2)c1 [Compound 19] | Activity (ear thickness inhibition) First Challenge [2]: ↓ (n.s.); Activity (ear thickness inhibition) Second Challenge [2]: No effect
114 | NCCNc1nc(Nc2cccc(N)c2)nc(Nc2cccc(N)c2)n1 [Compound 21] | –
63 | COc1cccc(Nc2nc(NCCO)nc(Nc3cccc(N)c3)n2)c1 [Compound 22] | –
86 | COc1ccc(Nc2nc(NCCO)nc(Nc3cccc(N)c3)n2)cc1 [Compound 23] | –
243 | COc1cccc(Nc2nc(NCC3CC3)nc(Nc3cccc(N)c3)n2)c1 [Compound 24] | –
75 | COc1ccc(Nc2nc(NCC3CC3)nc(Nc3cccc(N)c3)n2)cc1 [Compound 25] | –
126 | COc1ccc(Nc2nc(Nc3cccc(N)c3)nc(NC3CC3)n2)cc1 [Compound 26] | –
292 | COc1ccc(Nc2nc(N)nc(Nc3cccc(N)c3)n2)cc1 [Compound 27] | –
62 | Nc1cccc(Nc2nc(NCCO)nc(Nc3ccc(F)cc3)n2)c1 [Compound 28] | Activity (ear thickness inhibition) First Challenge [2]: ↓ (n.s.)
222 | Nc1cccc(Nc2nc(NCCO)nc(NCc3cccc(F)c3)n2)c1 [Compound 29] | –
38 | Nc1cccc(Nc2nc(NCC3CC3)nc(Nc3cccc(N)c3)n2)c1 [Compound 31] | Activity (ear thickness inhibition) Second Challenge [2]: ↓ (n.s.)
42 | Nc1cccc(Nc2nc(NCCO)nc(Nc3cccc(N)c3)n2)c1 [Compound 34] | –
40 | Nc1cccc(Nc2nc(NCCCCO)nc(Nc3cccc(N)c3)n2)c1 [Compound 39] | –
36 | Nc1cccc(Nc2nc(NCCO)nc(Nc3cccc(F)c3)n2)c1 [Compound 41] | –
39 | Nc1cccc(Nc2nc(NCCO)nc(NCc3ccc(F)cc3)n2)c1 [Compound 42] | –
86 | Nc1cccc(Nc2nc(NCCO)nc(NCc3ccccc3F)n2)c1 [Compound 43] | –
56 | Nc1cccc(Nc2nc(NCCO)nc(Nc3ccc(Cl)cc3)n2)c1 [Compound 44] | –
